From ChEMBL document CHEMBL1201862, “PubChem BioAssay data set” (2004)
Each block holds one molecule with its values, some of them ahead of it. Active and inactive are the calls of the source.

Legend:
[1] = molecular target: Intestinal-type alkaline phosphatase (Mus musculus, UniProt P24822); assay: PubChem AID 488785; type: functional
[2] = molecular target: T1, Alkaline phosphatase, tissue-nonspecific isozyme (Homo sapiens, UniProt P05186); assay: TNAP enzyme inhibition by screening hits, dose response, selectivity assay for mouse IAP inhibitor project, biochemical, human TNAP, uHTS hits (AID 488906); type: functional
T1 sequence (P05186 whole entry): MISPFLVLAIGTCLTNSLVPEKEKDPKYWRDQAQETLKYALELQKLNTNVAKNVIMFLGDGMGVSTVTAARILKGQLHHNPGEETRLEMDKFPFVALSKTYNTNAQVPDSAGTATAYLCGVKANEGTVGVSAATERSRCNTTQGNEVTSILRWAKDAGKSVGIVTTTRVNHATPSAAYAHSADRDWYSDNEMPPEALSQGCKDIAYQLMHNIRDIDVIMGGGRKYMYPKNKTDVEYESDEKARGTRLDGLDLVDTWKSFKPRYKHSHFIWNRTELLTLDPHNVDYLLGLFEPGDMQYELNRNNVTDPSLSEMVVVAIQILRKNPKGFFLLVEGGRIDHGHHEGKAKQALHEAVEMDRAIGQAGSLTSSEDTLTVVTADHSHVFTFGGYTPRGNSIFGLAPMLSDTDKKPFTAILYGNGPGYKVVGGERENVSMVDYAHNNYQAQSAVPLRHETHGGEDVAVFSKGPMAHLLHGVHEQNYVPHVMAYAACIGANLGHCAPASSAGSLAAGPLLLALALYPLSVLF

[3] = molecular target: Dual specificity tyrosine-phosphorylation-regulated kinase 1A (Rattus norvegicus, UniProt Q63470); type: biochemical, Homo sapiens
[4] = Counterscreen for IDE inhibitors: Luminescence-based cell-based high throughput dose response assay to identify compounds that are cytotoxic to HEK cells. [Related pubchem assays: 434962 (Primary screen (IDE inhibitors in singlicate)), 449730 (Counterscreen (Cytotoxicity in triplicate)), 435028 (Confirmation (IDE inhibitors in triplicate)) …; type: functional; conditions: HEK293
[5] = molecular target: Intestinal-type alkaline phosphatase (Homo sapiens, UniProt P09923); assay: inhibition of human intestinal alkaline phosphatase – biochemical, dose response (AID 488876); type: functional
Insulin-degrading enzyme = molecular target: T2, Insulin-degrading enzyme (Homo sapiens, UniProt P14735); assay: Dose Response: Fluorescence polarization-based cell-based high throughput dose response assay for inhibitors of insulin-degrading enzyme (IDE). [Related pubchem assays: 434962 (Primary screen (IDE inhibitors in singlicate)), 449730 (Counterscreen (Cytotoxicity in triplicate)), 435028 (Confirmation (IDE inhibitors in triplicate)), 434984 (Summary …; type: functional
T2 sequence (P14735 whole entry): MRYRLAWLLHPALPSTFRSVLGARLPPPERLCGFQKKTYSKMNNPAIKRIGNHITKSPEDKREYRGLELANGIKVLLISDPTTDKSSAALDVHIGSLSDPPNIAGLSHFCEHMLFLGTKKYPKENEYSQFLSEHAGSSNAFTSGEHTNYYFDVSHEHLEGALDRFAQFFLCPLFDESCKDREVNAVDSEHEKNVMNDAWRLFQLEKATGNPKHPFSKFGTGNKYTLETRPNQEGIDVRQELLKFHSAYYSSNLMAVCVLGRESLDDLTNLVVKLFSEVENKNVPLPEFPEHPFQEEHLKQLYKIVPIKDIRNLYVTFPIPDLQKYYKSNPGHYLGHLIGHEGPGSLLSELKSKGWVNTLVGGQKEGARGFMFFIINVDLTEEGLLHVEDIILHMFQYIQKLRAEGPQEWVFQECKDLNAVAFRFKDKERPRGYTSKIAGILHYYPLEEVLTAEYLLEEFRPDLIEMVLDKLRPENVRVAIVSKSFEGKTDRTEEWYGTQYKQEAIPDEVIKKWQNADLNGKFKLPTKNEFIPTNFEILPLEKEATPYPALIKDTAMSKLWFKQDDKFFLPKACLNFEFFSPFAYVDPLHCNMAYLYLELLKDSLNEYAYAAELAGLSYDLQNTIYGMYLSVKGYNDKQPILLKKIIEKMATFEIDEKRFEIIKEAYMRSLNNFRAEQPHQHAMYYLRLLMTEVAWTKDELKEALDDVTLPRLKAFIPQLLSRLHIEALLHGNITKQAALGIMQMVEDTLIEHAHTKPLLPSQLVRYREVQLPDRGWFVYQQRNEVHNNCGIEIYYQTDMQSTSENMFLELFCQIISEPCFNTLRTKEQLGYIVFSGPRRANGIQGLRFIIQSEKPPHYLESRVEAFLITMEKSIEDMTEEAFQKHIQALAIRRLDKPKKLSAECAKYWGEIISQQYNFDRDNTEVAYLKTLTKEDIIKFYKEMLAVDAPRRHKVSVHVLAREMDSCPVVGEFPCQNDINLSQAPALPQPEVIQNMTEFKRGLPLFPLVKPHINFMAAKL

Exodeoxyribonuclease V = Exodeoxyribonuclease V (Escherichia coli (strain K12), UniProt P04993+P07648+P08394); assay: E. coli RecBCD inhibitors, dose response, counter-screen for AddAB inhibitor project, absorbance, V66 E. coli, mutant T4 phage (AID 492957); type: functional, cell-based, Escherichia coli str. K-12 substr. MG1655
H9c2 = assay: cells; type: functional, cell-based; conditions: Rattus norvegicus, H9c2, Myocardium;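 also: confirmatory concentration-response retest of ultra-high-throughput screening hits for modulation of myocardial damage; cell death induced by hydrogen peroxide oxidative stress; compound pretreatment for 60 min then peroxide exposure for 2 h; potency is for protecting the cells against peroxide damage rather than for killing them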
[6] = Counterscreen for AddAB inhibitors: absorbance-based bacterial cell-based high throughput dose response assay for inhibitors of bacterial viability. [Related pubchem assays (depositor defined):AID435030, AID449728, AID449731, AID488942, AID488955, AID488956]; type: functional
Cysteine protease ATG4B = molecular target: T3, Cysteine protease ATG4B (Homo sapiens, UniProt Q9Y4P1); type: functional;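 also: Fluorescence-based dose-response confirmation assay measuring inhibition of ATG4B activity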
T3 sequence (Q9Y4P1 whole entry): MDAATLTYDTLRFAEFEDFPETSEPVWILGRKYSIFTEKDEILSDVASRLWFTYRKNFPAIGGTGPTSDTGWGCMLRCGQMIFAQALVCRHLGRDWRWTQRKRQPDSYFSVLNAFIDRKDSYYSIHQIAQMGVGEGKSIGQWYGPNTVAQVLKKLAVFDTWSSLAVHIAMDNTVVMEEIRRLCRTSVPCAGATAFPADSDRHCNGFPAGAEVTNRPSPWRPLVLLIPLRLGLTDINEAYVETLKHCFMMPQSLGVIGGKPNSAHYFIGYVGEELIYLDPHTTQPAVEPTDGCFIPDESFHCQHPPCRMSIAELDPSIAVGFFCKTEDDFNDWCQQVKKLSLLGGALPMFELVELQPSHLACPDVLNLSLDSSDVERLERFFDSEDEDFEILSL

Cannabinoid receptor 2 [7] = molecular target: T4, Cannabinoid receptor 2 (Homo sapiens, UniProt P34972); assay: SAR analysis of antagonists of the Cannabinoid Receptor 2 using an Image-Based Assay - Set 2. [Related pubchem assays (depositor defined):AID1961, AID1965]; type: functional
[8] = molecular target: T5, G-protein coupled receptor 55 (Homo sapiens, UniProt Q9Y2T6); assay: GPR55 agonists via beta-arrestin recruitment, primary screen, imaging, U2OS cells, beta-arrestin-GFP redistribution (AID 1961); type: functional
Cannabinoid receptor 2 [9] = molecular target: T4, Cannabinoid receptor 2; assay: SAR analysis of agonists of the Cannabinoid Receptor 2 using an Image-Based Assay - Set 2. [Related pubchem assays (depositor defined):AID1961, AID1965]; type: functional
Cannabinoid receptor 1 = Cannabinoid receptor 1 (Homo sapiens, UniProt P21554); assay: SAR analysis of antagonists of the Cannabinoid Receptor 1 using an Image-Based Assay. [Related pubchem assays (depositor defined):AID1961, AID1965]; type: functional
[10] = molecular target: T6, Heat shock factor protein 1 (Mus musculus, UniProt P38532); assay: inhibition of MG132-induced HSE-luciferase signal, confirmation, cell-based, NIH3T3, luminescence, dose retest (AID 2382); type: functional;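 also: NIH3T3 fibroblasts with HSF1-driven luciferase reporter stressed by proteasome inhibitor MG132; luminescence from HSF1-driven luciferase expression after 8 hours of MG132 stress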
T6 sequence (P38532 whole entry): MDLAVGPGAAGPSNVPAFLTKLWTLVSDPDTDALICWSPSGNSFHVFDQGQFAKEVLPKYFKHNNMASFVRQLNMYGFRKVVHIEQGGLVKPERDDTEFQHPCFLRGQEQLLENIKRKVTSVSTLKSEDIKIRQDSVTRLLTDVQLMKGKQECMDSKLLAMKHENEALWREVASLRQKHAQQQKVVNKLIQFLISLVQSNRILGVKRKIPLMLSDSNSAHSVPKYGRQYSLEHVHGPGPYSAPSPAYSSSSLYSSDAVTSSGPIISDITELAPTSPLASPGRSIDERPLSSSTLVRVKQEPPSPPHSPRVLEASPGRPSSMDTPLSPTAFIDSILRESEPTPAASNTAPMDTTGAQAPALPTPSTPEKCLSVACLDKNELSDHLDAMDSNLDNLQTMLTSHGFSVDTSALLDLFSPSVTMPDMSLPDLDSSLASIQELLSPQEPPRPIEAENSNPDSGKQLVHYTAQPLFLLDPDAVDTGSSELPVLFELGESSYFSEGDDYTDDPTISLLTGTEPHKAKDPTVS

[11] = molecular target: T5, G-protein coupled receptor 55; assay: SAR analysis of selective Agonists of GPR55 using an Image-Based Assay. [Related pubchem assays (depositor defined):AID1961, AID1965]; type: functional
Phospholipase A2 = Phospholipase A2 (Homo sapiens, UniProt P04054); type: functional;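 also: confirmatory dose-response counterscreen on phospholipase A2, testing hits that came from an ultra-high-throughput screen for ATG4B inhibitors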
Phospholipase A2, sequence (P04054 whole entry): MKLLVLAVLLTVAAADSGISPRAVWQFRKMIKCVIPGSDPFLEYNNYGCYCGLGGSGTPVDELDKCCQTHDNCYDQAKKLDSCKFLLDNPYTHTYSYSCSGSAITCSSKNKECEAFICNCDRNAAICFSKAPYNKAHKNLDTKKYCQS

T5 sequence (Q9Y2T6 whole entry): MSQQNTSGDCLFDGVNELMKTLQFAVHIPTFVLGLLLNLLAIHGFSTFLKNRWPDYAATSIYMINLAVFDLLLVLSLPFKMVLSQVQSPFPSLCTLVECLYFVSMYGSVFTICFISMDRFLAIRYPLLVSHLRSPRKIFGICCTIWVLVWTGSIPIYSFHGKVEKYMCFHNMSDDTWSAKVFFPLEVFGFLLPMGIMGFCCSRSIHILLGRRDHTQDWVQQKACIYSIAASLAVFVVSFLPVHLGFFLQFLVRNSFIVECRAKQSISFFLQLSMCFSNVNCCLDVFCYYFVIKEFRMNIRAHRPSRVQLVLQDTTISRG
T4 sequence (P34972 whole entry): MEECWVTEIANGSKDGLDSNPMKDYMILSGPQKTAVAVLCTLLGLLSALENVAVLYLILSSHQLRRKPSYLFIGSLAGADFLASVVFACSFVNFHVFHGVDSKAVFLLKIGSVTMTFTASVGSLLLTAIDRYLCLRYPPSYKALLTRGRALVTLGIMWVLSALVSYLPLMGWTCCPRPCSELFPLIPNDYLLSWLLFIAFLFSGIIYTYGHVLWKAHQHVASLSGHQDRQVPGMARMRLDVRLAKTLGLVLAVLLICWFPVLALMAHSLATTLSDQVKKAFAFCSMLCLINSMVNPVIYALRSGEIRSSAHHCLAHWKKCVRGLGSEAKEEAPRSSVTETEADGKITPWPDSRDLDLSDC
Intestinal-type alkaline phosphatase (Mus musculus, UniProt P24822), sequence (P24822 whole entry): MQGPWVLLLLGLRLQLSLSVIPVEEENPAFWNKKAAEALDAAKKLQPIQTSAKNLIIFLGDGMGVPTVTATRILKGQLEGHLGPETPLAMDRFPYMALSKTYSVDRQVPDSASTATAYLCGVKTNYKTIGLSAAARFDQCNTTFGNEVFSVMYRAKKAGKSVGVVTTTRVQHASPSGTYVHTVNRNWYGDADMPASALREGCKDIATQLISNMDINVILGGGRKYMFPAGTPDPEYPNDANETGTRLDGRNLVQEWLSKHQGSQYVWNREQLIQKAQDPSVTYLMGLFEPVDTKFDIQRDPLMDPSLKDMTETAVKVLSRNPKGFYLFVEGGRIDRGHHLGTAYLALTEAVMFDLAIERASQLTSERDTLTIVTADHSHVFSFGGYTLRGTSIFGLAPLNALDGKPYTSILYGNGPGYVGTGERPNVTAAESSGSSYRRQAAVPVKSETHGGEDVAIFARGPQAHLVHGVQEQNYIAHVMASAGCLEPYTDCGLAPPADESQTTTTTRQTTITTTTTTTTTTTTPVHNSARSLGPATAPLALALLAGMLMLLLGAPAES
Intestinal-type alkaline phosphatase (Homo sapiens, UniProt P09923), sequence (P09923 whole entry): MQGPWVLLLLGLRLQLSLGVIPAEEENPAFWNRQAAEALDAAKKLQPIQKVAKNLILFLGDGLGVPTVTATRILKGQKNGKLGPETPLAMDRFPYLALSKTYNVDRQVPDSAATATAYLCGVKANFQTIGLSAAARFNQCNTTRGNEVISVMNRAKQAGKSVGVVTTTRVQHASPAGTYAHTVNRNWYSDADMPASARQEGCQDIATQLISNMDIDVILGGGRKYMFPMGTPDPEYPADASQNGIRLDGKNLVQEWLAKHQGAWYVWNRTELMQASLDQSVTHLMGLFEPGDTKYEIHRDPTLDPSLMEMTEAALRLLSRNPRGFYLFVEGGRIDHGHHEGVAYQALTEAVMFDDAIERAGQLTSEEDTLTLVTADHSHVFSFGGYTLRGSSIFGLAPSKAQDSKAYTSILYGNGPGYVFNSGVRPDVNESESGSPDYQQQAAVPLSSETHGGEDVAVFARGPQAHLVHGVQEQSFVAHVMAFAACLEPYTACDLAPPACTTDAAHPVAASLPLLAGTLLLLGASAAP
Cannabinoid receptor 1, sequence (P21554 whole entry): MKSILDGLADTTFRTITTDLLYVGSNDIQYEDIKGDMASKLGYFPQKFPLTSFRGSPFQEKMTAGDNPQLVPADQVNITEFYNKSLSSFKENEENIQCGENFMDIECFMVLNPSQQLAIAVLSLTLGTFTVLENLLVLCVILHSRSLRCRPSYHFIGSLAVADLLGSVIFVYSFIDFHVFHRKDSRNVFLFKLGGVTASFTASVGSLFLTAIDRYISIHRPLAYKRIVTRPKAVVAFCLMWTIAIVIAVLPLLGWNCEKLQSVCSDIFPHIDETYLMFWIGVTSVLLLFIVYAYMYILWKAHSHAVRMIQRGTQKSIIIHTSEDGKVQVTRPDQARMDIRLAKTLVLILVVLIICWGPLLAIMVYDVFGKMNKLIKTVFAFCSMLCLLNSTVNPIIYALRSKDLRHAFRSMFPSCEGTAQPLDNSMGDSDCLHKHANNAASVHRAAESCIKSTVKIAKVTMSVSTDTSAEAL

Compound: COc1cc(/C=N/N2C(=O)CSC2=S)ccc1O
IC50 [1]: 2.2 µM (active)
IC50 [2]: > 100 µM (inactive)
AC50 [3]: 9.55 µM (active)
IC50 [4]: > 55.7 µM (not active)
IC50 [5]: 21.3 µM (active)
IC50 (Insulin-degrading enzyme): > 6.22 µM (active)

Compound: O=C1c2ccccc2NC(c2ccc(-c3cccc([N+](=O)[O-])c3)o2)N1O (configuration not stated)
IC50 (Exodeoxyribonuclease V): > 119 µM (inactive)
IC50 (H9c2): 11.9 µM (active)
IC50 [6]: > 119 µM (inactive)

IC50 (Cysteine protease ATG4B): 14.7 µM (active)
IC50 (Cannabinoid receptor 2 [7]): > 32 µM (inactive)
EC50 [8]: 0.806 µM (active)
EC50 (Cannabinoid receptor 2 [9]): > 32 µM (inactive)
IC50 (Cannabinoid receptor 1): > 32 µM (inactive)
EC50 [10]: > 195 µM (not active)
EC50 [11]: 0.865 µM (active)
IC50 (Phospholipase A2): 10 µM (active)
Compound: COc1cc2c(cc1NC(=O)C(C)Sc1ccc(NC(C)=O)cc1)oc1ccccc12 (configuration not stated)
